“And” between values parts separate entries of the source, which are not always exact repeats. Identical values can stand only once.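 Step 1: Grow cells in 96-well plates. Step 2: Expose to compound for 48 hours at 5 concentrations. Step 3: Interpolate endpoints linearly; if unreached, use highest concentration. GI50 is the concentration that inhibits growth by half. Definition used: TGI = concentration required for complete inhibition of growth.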
Experiments:
Assay in all cases: DTP human tumour cell line panel, 48 h
HOP-92 NSCLC = test system: HOP-92 NSCLC
RPMI-8226 leukemia = test system: RPMI-8226 leukemia
ACHN renal = test system: ACHN renal
SN12C renal = test system: SN12C renal
786-0 renal = test system: 786-0 renal
K-562 leukemia = test system: K-562 leukemia
OVCAR-4 ovarian = test system: OVCAR-4 ovarian
LOX IMVI melanoma = test system: LOX IMVI melanoma
IGROV1 ovarian = test system: IGROV1 ovarian
HS 578T breast = test system: HS 578T breast
MDA-MB-435 = test system: MDA-MB-435
OVCAR-5 ovarian = test system: OVCAR-5 ovarian
CAKI-1 renal = test system: CAKI-1 renal
OVCAR-3 ovarian = test system: OVCAR-3 ovarian
SW-620 colon = test system: SW-620 colon
U251 CNS = test system: U251 CNS
T-47D breast = test system: T-47D breast
DU-145 prostate = test system: DU-145 prostate
SK-OV-3 ovarian = test system: SK-OV-3 ovarian
NCI-H460 lung = test system: NCI-H460 lung
MALME-3M melanoma = test system: MALME-3M melanoma
HL-60(TB) leukemia = test system: HL-60(TB) leukemia
HCT-116 colon = test system: HCT-116 colon
SK-MEL-2 melanoma = test system: SK-MEL-2 melanoma
MDA-MB-231 breast = test system: MDA-MB-231 breast
HCC-2998 colon = test system: HCC-2998 colon
UACC-257 melanoma = test system: UACC-257 melanoma
RXF 393 renal = test system: RXF 393 renal
BT-549 breast = test system: BT-549 breast
SF-295 CNS = test system: SF-295 CNS

C[C@H](NC(=O)c1c(N)nn2cccnc12)c1cc2cccc(C#Cc3cnn(C)c3)c2c(=O)n1-c1ccccc1
TGI (HOP-92 NSCLC): 7.35 µM and 20.4 µM | GI50 (RPMI-8226 leukemia): 3.23 µM and 3.84 µM | TGI (RPMI-8226 leukemia): > 10 µM and 31.4 µM | GI50 (ACHN renal): 3.39 µM and 2.92 µM | TGI (ACHN renal): > 10 µM and 18.8 µM | GI50 (SN12C renal): 4.09 µM and 6.47 µM | TGI (SN12C renal): > 10 µM and 43.4 µM | GI50 (786-0 renal): 3.97 µM and 3.56 µM | TGI (786-0 renal): > 10 µM and 16.9 µM | GI50 (K-562 leukemia): > 10 µM and 10.4 µM | TGI (K-562 leukemia): > 100 µM | GI50 (OVCAR-4 ovarian): 8.72 µM and 13.3 µM | TGI (OVCAR-4 ovarian): > 10 µM and 68.4 µM | GI50 (LOX IMVI melanoma): 3.44 µM | TGI (LOX IMVI melanoma): > 10 µM and 40 µM | GI50 (IGROV1 ovarian): 0.439 µM and 0.722 µM | TGI (IGROV1 ovarian): 2.89 µM and 5.47 µM | GI50 (HS 578T breast): 1.83 µM and 1.26 µM | TGI (HS 578T breast): > 10 µM and 46.3 µM | GI50 (MDA-MB-435): 5.87 µM and 5.57 µM | TGI (MDA-MB-435): > 10 µM and 60.8 µM | GI50 (OVCAR-5 ovarian): 8.65 µM and 6.17 µM | TGI (OVCAR-5 ovarian): > 10 µM and 28.7 µM | GI50 (CAKI-1 renal): 3.81 µM | TGI (CAKI-1 renal): > 10 µM | GI50 (OVCAR-3 ovarian): 4.27 µM and 4.6 µM | TGI (OVCAR-3 ovarian): > 10 µM and 27.1 µM | GI50 (SW-620 colon): 3.14 µM and 11.9 µM | TGI (SW-620 colon): > 10 µM and 61 µM | GI50 (U251 CNS): 7.5 µM and 8.22 µM | TGI (U251 CNS): > 10 µM and 48.5 µM | GI50 (T-47D breast): 0.211 µM and 0.224 µM | TGI (T-47D breast): 1.91 µM and 3.88 µM | GI50 (DU-145 prostate): 8.71 µM and 7.69 µM | TGI (DU-145 prostate): > 100 µM | GI50 (SK-OV-3 ovarian): 2.89 µM and 2.13 µM | TGI (SK-OV-3 ovarian): > 10 µM and 15.5 µM | GI50 (NCI-H460 lung): 3.8 µM and 5.2 µM | TGI (NCI-H460 lung): > 10 µM and 23.9 µM | TGI (MALME-3M melanoma): > 10 µM and 20 µM | GI50 (HL-60(TB) leukemia): 0.774 µM and 0.813 µM | TGI (HL-60(TB) leukemia): > 10 µM and 9.86 µM | GI50 (HCT-116 colon): 2.61 µM and 6.65 µM | TGI (HCT-116 colon): > 10 µM and 33.9 µM | GI50 (SK-MEL-2 melanoma): > 10 µM and 6.61 µM | TGI (SK-MEL-2 melanoma): > 10 µM and 41.1 µM | GI50 (MDA-MB-231 breast): 5.98 µM and 12.3 µM | TGI (MDA-MB-231 breast): > 10 µM and 54.1 µM | GI50 (HCC-2998 colon): > 10 µM and 4.94 µM | TGI (HCC-2998 colon): > 10 µM and 19.9 µM | GI50 (UACC-257 melanoma): > 10 µM and 9.9 µM | TGI (UACC-257 melanoma): > 10 µM and 39.2 µM | GI50 (RXF 393 renal): 2.02 µM and 1.58 µM | TGI (RXF 393 renal): > 10 µM and 9.57 µM | GI50 (BT-549 breast): 1.6 µM and 1.42 µM | TGI (BT-549 breast): > 10 µM and 15.2 µM | GI50 (SF-295 CNS): 2.52 µM and 2.47 µM | TGI (SF-295 CNS): > 10 µM and 15.6 µM

Source: PubChem BioAssay (NCI)
